The results in this text go back to ChEMBL document CHEMBL1201862, “PubChem BioAssay data set” (2004).

Some test systems named below: MDA-N; OVCAR-5; HOP-62; 786-0; Hs-578T; OVCAR-8; UO-31; A498; NCI/ADR-RES; HT-29; SF-268; SF-295; KM12; SF-539; DU-145; BT-549; SK-OV-3; HCT-15; RXF 393.
Assay in all cases: NCI-60 cell line screen, 48 h

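Cells were grown in 96-well plates and exposed to each compound for 48 hours at five concentrations; endpoints were interpolated linearly between bracketing concentrations, or set to the highest concentration if not reached. Abbreviation: GI50, concentration required for 50% inhibition of growth.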 The source made the active and inactive calls. No stated cut-off is given here; in the data, active = GI50 up to about 1.1 µM and inactive = higher.

`COc1cc(C(c2ccc3c(c2)OCO3)N2C(=O)CCC2C(=O)O)cc(OC)c1OC` (configuration not stated): the GI50 in the test with MDA-N, in the test with OVCAR-5, in the test with HOP-62, with 786-0, in the test with Hs-578T and in the test with OVCAR-8 was > 100 µM (inactive) each time. Further, the GI50 in the test on UO-31, in the test on A498, in the test with NCI/ADR-RES, with HT-29, with SF-268 and in the test with SF-295 was > 100 µM (inactive) in each case. Moreover, the GI50 in the test on KM12 is > 100 µM (inactive); in the test with SF-539, > 100 µM (inactive); in the test with DU-145, > 100 µM (inactive); with BT-549 it was > 100 µM (inactive); in the test with SK-OV-3 it was > 100 µM (inactive); in the test with HCT-15, above 100 µM.

For `CN(/N=C/c1ccc(Cl)c(Cl)c1)C1=NCCN1`, the GI50 was 15.7 µM (inactive) in the test on MDA-N; > 100 µM (inactive) in the test on OVCAR-5; 17.4 µM (inactive) with HOP-62; 16.4 µM (inactive) with 786-0; 18.1 µM (inactive) with Hs-578T; 40.3 µM (inactive) in the test with OVCAR-8. Further, the GI50 in the test with A498 was 12.1 µM (inactive); in the test with NCI/ADR-RES, 37.6 µM (inactive); in the test with HT-29 it was 25.2 µM (inactive); with SF-268, 28.7 µM (inactive); in the test with SF-295, 24.8 µM (inactive); with KM12, 28.1 µM (inactive). In addition, the GI50 with SF-539 is 21.2 µM (inactive); in the test with DU-145, 48.6 µM (inactive); with BT-549, 28.3 µM (inactive); with SK-OV-3, 22.4 µM (inactive); in the test with HCT-15, 30.8 µM.

As for `CC1(C)CC23CC(C)(C)c4cccc(c42)OCc2ccc4ccc5ccc(nc5c4n2)COc2cccc1c23`, the GI50 in the test on MDA-N, in the test on OVCAR-5, in the test with HOP-62, with 786-0, with Hs-578T and with OVCAR-8 was > 50 µM (inactive) throughout. Further, the GI50 in the test with UO-31, in the test on A498, with NCI/ADR-RES, in the test with HT-29, with SF-268 and in the test on SF-295 was > 50 µM (inactive) throughout. In addition, the GI50 is > 50 µM (inactive) in the test on KM12; > 50 µM (inactive) in the test on SF-539; > 50 µM (inactive) with DU-145; > 50 µM (inactive) in the test on BT-549; > 50 µM (inactive) with SK-OV-3; above 50 µM with HCT-15.

As for `C=C(C)[C@H]1C2=CC(C)=C(O2)[C@@H](O[C@@H]2c3oc(cc3C)[C@H](C(=C)C)[C@H]3C=C(CC[C@H]2C(=C)C)C(=O)O3)[C@H](C(=C)C)CCC2=C[C@H]1OC2=O`, the GI50 in the test with MDA-N was > 100 µM (inactive); in the test on OVCAR-5, > 100 µM (inactive); in the test on HOP-62 it was 81.1 µM (inactive); with 786-0, > 100 µM (inactive); in the test on Hs-578T, > 100 µM (inactive); in the test on OVCAR-8, > 100 µM (inactive). The GI50 with UO-31, in the test with A498, in the test with NCI/ADR-RES, with SF-268, in the test with SF-295 and in the test on KM12 was > 100 µM (inactive) throughout. The GI50 with DU-145 is > 100 µM (inactive); in the test on BT-549 it was > 100 µM (inactive); in the test with SK-OV-3 it was > 100 µM (inactive); with HCT-15, above 100 µM.

Consider `Oc1nc(S)nc2c1C(c1ccc(Cl)cc1)c1c(O)nc(S)nc1O2`, for which the GI50 with MDA-N, with OVCAR-5, in the test with HOP-62, in the test with 786-0, in the test with Hs-578T and with OVCAR-8 was > 100 µM (inactive) in each case. In addition, the GI50 in the test with UO-31 is > 100 µM (inactive); in the test with A498 it was > 100 µM (inactive); with NCI/ADR-RES, > 100 µM (inactive); in the test on HT-29 it was > 100 µM (inactive); with SF-268, 25.7 µM (inactive); with SF-295 it was > 100 µM (inactive). For the same compound, the GI50 with KM12 was > 100 µM (inactive); in the test on DU-145, > 100 µM (inactive); with BT-549, > 100 µM (inactive); in the test on RXF 393 it was 0.514 µM (active); with HCT-15, above 100 µM.

Turning to `CNC(=O)C(NC(=O)[C@H](CC(C)C)NC(=O)[C@@H](S)CCN1C(=O)N(C)C(C)(C)C1=O)C(C)(C)C` (some centres not stated), the GI50 with MDA-N, with OVCAR-5, with HOP-62, in the test on 786-0, with Hs-578T and with OVCAR-8 was > 100 µM (inactive) each time. Also, the GI50 in the test on UO-31, with A498, in the test with NCI/ADR-RES, with HT-29, with SF-268 and with SF-295 was > 100 µM (inactive) throughout. The GI50 in the test on KM12 was > 100 µM (inactive); in the test with DU-145, > 100 µM (inactive); with BT-549, > 100 µM (inactive); in the test with RXF 393, > 100 µM (inactive); with SK-OV-3, > 100 µM (inactive); in the test with HCT-15, above 100 µM.

As to `O=c1[nH]c(N/N=C\C(O)C(O)C(O)C(O)CO)nc2ccccc12` (configuration not stated), the GI50 with MDA-N, in the test with OVCAR-5, in the test with HOP-62, in the test on 786-0, with Hs-578T and in the test with OVCAR-8 was > 100 µM (inactive) throughout. Also, the GI50 with UO-31, in the test with A498, in the test on NCI/ADR-RES, in the test on HT-29, in the test with SF-268 and in the test on SF-295 was > 100 µM (inactive) throughout. Besides, the GI50 in the test with KM12 is > 100 µM (inactive); in the test with SF-539, > 100 µM (inactive); in the test on DU-145, > 100 µM (inactive); with BT-549 it was > 100 µM (inactive); in the test on SK-OV-3 it was > 100 µM (inactive); with HCT-15, above 100 µM.

In the case of `O=C1N=C2SC(=S)N=C(S)N2NC12c1ccccc1-c1ccccc12`, the GI50 is > 10 µM (inactive) in the test on MDA-N; > 10 µM (inactive) with HOP-62; > 10 µM (inactive) with 786-0; > 10 µM (inactive) in the test with Hs-578T; > 10 µM (inactive) with OVCAR-8; 6.28 µM (inactive) in the test on UO-31. Besides, the GI50 in the test with A498 is 1.55 µM (inactive); in the test with NCI/ADR-RES it was 3.61 µM (inactive); with HT-29, 7.01 µM (inactive); in the test on SF-268 it was > 10 µM (inactive); with KM12 it was > 10 µM (inactive); in the test with SF-539, > 10 µM (inactive). Moreover, the GI50 with DU-145 was > 10 µM (inactive); in the test with BT-549 it was > 10 µM (inactive); in the test on SK-OV-3, > 10 µM (inactive); with HCT-15 it was above 10 µM.

In the case of `CC(=O)OC1CCC2(C)C(=CC(C3C=C4CC(OC(C)=O)CCC4(C)C4=C3C3CC5OC6(CCC(C)CO6)C(C)C5C3(C)CC4)C3=C2CCC2(C)C3CC3OC4(CCC(C)CO4)C(C)C32)C1` (configuration not stated), the GI50 in the test on MDA-N is 17.2 µM (inactive); with OVCAR-5, 17.7 µM (inactive); with HOP-62, 15.5 µM (inactive); in the test with 786-0, 16.1 µM (inactive); in the test on Hs-578T, 2.61 µM (inactive); in the test on OVCAR-8 it was 11.1 µM (inactive). In addition, the GI50 in the test with UO-31 was 15.5 µM (inactive); in the test with A498, 17.1 µM (inactive); with NCI/ADR-RES, 17.2 µM (inactive); in the test on HT-29 it was 14 µM (inactive); in the test on SF-268, 11.4 µM (inactive); in the test on SF-295, 13.2 µM (inactive). For the same compound, the GI50 with KM12 was 18.2 µM (inactive); in the test with DU-145, 14.2 µM (inactive); with BT-549 it was 15.6 µM (inactive); with RXF 393, 16.1 µM (inactive); in the test with SK-OV-3 it was 16.3 µM (inactive); in the test on HCT-15, 14.3 µM.

With `Cc1ccc(-c2n[nH]c(=O)n2N)cc1`, the GI50 in the test on MDA-N, in the test on OVCAR-5, with HOP-62, in the test on 786-0, with Hs-578T and with OVCAR-8 was > 100 µM (inactive) in each case. Also, the GI50 with UO-31, in the test with A498, with NCI/ADR-RES, in the test on HT-29, in the test on SF-268 and in the test on SF-295 was > 100 µM (inactive) each time. The GI50 in the test on KM12 was > 100 µM (inactive); with SF-539 it was > 100 µM (inactive); with DU-145 it was > 100 µM (inactive); in the test on BT-549 it was > 100 µM (inactive); with SK-OV-3, > 100 µM (inactive); in the test with HCT-15, above 100 µM.

Regarding `C=CCOc1ccc(C2(O)c3ccccc3C3=NCCCN32)cc1` (configuration not stated), the GI50 in the test with MDA-N was 36.1 µM (inactive); in the test on OVCAR-5 it was 72.4 µM (inactive); in the test with HOP-62 it was 60.5 µM (inactive); in the test with 786-0, 38.3 µM (inactive); in the test on Hs-578T, > 73.8 µM (inactive); in the test on OVCAR-8, > 100 µM (inactive). For the same compound, the GI50 in the test on UO-31 is 51.8 µM (inactive); with A498 it was > 100 µM (inactive); in the test on NCI/ADR-RES, > 100 µM (inactive); in the test with HT-29, > 65.9 µM (inactive); in the test with SF-268 it was > 61.4 µM (inactive); in the test with SF-295, 51.5 µM (inactive). The GI50 in the test on KM12 is 44.5 µM (inactive); with SF-539, 56 µM (inactive); in the test on DU-145 it was > 100 µM (inactive); in the test with BT-549, > 100 µM (inactive); in the test with SK-OV-3, > 95.9 µM (inactive); with HCT-15, above 62.2 µM.
